{
  "source": "patent US7973032B2",
  "about": "“Staurosporine derivatives for use in alveolar rhabdomyosarcoma” (University of Zurich, priority 2005, dated 2011)",
  "key": {"aRMS": {"test_system": "aRMS", "assay": "mouse xenograft tumor model", "conditions": "in vivo", "from_the_text": "(§1) Recently, we have established a gene signature characteristic for the Pediatric sarcoma alveolar rhabdomyosarcoma (aRMS), which expresses the chimaeric fusion protein PAX3/FKHR due to a chromosomal translocation event t(2; 13). Based on this signature, a number of potential therapeutic target molecules have been selected for further study, such as FGFR2. […] Furthermore, tumor growth could also be inhibited in vivo using a mouse xenograft tumor model."}, "aRMS cells [1]": {"test_system": "aRMS cells", "assay": "apoptosis / caspase 3 activity in aRMS cells", "format": "cell-based", "conditions": "aRMS cells in vitro", "from_the_text": "as §1"}, "aRMS cells [2]": {"test_system": "aRMS cells", "assay": "cell growth of aRMS cells in vitro", "format": "cell-based", "from_the_text": "as §1"}, "PAX3/FKHR": {"target": "T1, PAX3/FKHR (Homo sapiens, UniProt P23760+Q12778)", "T1 construct": "FKHR (FOXO1, Q12778) C-terminal portion as fusion partner; endogenous in cells", "T1 sequence (P23760+Q12778 fused)": "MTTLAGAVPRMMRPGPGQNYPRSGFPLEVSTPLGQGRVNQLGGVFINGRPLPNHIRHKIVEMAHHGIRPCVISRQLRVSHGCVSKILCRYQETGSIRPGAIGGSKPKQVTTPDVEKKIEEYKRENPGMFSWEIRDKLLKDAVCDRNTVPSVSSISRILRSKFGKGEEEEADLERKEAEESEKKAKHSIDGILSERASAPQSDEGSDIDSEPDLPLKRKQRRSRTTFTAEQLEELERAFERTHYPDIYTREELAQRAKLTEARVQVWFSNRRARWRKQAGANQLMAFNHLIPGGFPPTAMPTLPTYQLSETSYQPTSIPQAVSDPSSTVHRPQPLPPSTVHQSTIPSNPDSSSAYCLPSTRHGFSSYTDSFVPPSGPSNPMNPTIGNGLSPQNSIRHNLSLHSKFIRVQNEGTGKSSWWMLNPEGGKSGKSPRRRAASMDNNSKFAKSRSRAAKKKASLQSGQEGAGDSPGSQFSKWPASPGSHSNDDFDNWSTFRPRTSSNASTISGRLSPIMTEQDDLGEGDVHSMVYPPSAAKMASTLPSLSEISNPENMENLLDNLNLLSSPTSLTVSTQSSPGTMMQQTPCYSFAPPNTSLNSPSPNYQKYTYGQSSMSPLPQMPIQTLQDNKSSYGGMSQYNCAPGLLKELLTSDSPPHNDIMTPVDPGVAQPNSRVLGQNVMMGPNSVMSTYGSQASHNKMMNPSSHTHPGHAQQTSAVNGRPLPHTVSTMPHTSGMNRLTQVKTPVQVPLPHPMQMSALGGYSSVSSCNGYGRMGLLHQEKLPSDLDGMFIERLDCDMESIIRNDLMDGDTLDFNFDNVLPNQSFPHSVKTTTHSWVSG", "assay": "expression of PAX3/FKHR specific target gene CB1", "format": "cell-based", "conditions": "upon treatment"}},
  "data": [
    {"compound": "CO[C@@H]1[C@H](N(C)C(=O)c2ccccc2)C[C@H]2O[C@]1(C)n1c3ccccc3c3c4c(c5c6ccccc6n2c5c31)C(=O)NC4", "note": "[PKC412, N-[(9S,10R,11R,13R)-2,3,10,11,12,13-hexahydro-10-methoxy-9-methyl-1-oxo-9,13-epoxy-1H,9H-diindolo[1,2,3-gh:3′,2′,1′-Im]pyrrolo[3,4-j][1,7]benzodiazonin-11-yl]-N-methylbenzamide]", "values": [
      {"measurement": "tumor growth", "setting": "aRMS", "result": "inhibited"},
      {"measurement": "apoptosis", "setting": "aRMS cells [1]", "result": "induce apoptosis"},
      {"measurement": "caspase 3 activity", "setting": "aRMS cells [1]", "result": "enhanced caspase 3 activity"},
      {"measurement": "cell growth of aRMS cells", "setting": "aRMS cells [2]", "result": "efficiently inhibit cell growth"},
      {"measurement": "CB1 expression", "setting": "PAX3/FKHR", "result": "completely abolished"}
    ]}
  ]
}
